Experimental data reported in publication PMC8741970, “Ablation of VLA4 in multiple myeloma cells redirects tumor spread and prolongs survival” (Scientific Reports, 2022).
“Also recorded” adds a separate entry of the source.

Tests used:
[1] = system: monocytes; assay: Binding studies with MM patient BM samples, monocytes; set-up: species or system human
Procedure: (§1) Purified cells were > 97% for CD38 + CD138 + plasma cells.
(§2) The data were analyzed on FlowJo software. The appropriate isotype antibodies were used as controls.

[2] = system: T-lymphocytes; assay: Binding studies with MM patient BM samples, T-lymphocytes; set-up: species or system human
Procedure: as §1, §2

[3] = system: B-lymphocytes; assay: Binding studies with MM patient BM samples, B-lymphocytes; set-up: species or system human
Procedure: as §1, §2

[4] = system: VLA4 expressing cells in BM and spleen of 5TGM1-GFP tumor mice; assay: FACS of ex vivo tissue samples after LLP2A-Cy5 injection; type: in vivo, mouse; details: after i.v. LLP2A-Cy5
Procedure: as §2
(§3) [picture] Supplementary Figure 4. […] In vivo 3D fluorescence imaging was performed on IVIS Spectrum CT (PerkinElmer, Waltham, MA) with auto-exposure settings in the GFP wavelength (Ex./Em. 480nm/520nm) filter pair. […] GFP^+ cells were co-stained with PE-conjugated anti-mouse CD49d and eFluor450-conjugated anti-mouse CD29 antibodies (middle; Thermo Fisher Scientific) to identify VLA4^+ cells.

[5] = biological target: activated VLA4 on OPM2 (Homo sapiens, UniProt P05556+P13612); details: OPM2, flow cytometry
Procedure: (§4) The single cells were suspended in phosphate-buffered saline (PBS) with 0.1% bovine serum albumin as buffer. The human and mouse FC receptors were blocked by human BD Fc block and mouse BD Fc block, respectively. The cell suspension was incubated with fluorochrome-conjugated monoclonal antibodies in dark, at room temperature, for 30 min. Cells were washed twice with buffer afterward, and then proceeded analysis on a Beckman Coulter Gallios flow cytometer. The dead cells were excluded by using 7-amino-actinonycin D (7-AAD). The data were analyzed on FlowJo software. The appropriate isotype antibodies were used as controls.

[6] = biological target: activated VLA4 on 5TGM1 (Mus musculus, UniProt P09055+Q00651); details: 5TGM1, flow cytometry
Procedure: as §4

[7] = biological target: activated VLA4 on RPMI-8226 (Homo sapiens, UniProt P05556+P13612); details: RPMI-8226, flow cytometry
Procedure: as §4

[8] = biological target: activated VLA4 on MM1.S (Homo sapiens, UniProt P05556+P13612); details: flow cytometry
Procedure: as §4

[9] = biological target: activated VLA4 on U266 (Homo sapiens, UniProt P05556+P13612); details: U266, flow cytometry
Procedure: as §4

[10] = biological target: activated VLA4 on H929 (Homo sapiens, UniProt P05556+P13612); details: H929, flow cytometry
Procedure: as §4

[11] = biological target: T1, VLA4 on WT 5TGM1-GFP cells (Mus musculus, UniProt P09055+Q00651); assay: Flow cytometry binding to WT 5TGM1-GFP cells; set-up: species or system murine; details: for binding to WT cells (flow cytometry gate): 1.5 × 10^5 WT 5TGM1-GFP cells, no BIO5192; for binding to WT cells after pre-incubation with BIO5192: WT 5TGM1-GFP cells, pre-incubation with an established therapeutic dose of BIO5192
T1 construct: endogenous in cells; host or cells: WT 5TGM1-GFP murine myeloma cells
Procedure: as §4

[12] = system: VLA4 KO 5TGM1-GFP cells; assay: Flow cytometry binding to Itga4 KO 5TGM1-GFP cells; set-up: species or system murine; details: for binding to KO cells (flow cytometry gate): 1.5 × 10^5 Itga4 KO 5TGM1-GFP cells, no BIO5192; for binding to KO cells after pre-incubation with BIO5192: Itga4 KO 5TGM1-GFP cells, pre-incubation with an established therapeutic dose of BIO5192
Procedure: as §4

[13] = biological target: activated VLA4 on the surface of the 5TGM1-GFP murine myeloma cells (Mus musculus, UniProt P09055+Q00651); assay: Confocal microscopy of cell surface binding and internalization of Cy5-labelled probes; details: WT 5TGM1-GFP cells
Procedure: Blue, green and red colors represent nuclear stain, GFP, and Cy5 signal, respectively in all images (60x; scale bar: 20 µm). […] BIO5192 (100 nM) was used to evaluate non-specific binding.
WT 5TGM1-GFP cells were plated on 35 mm glass bottom MatTek dishes pre-coated with poly-D-lysine (glass no. 1.5; MatTek Corporation, MA) at 10^5 cells/cm^2 and allowed to attach for 1 h at 37 °C. Cells were incubated with the Cy5-labelled probes (1 µM) at 4 °C for 15 min, and at 37 °C for 2.5 h to assess cell surface binding specificity and cellular internalization, respectively. Hoechst 34,580 (10 µg/L, Invitrogen, CA) was added for the last 15 min of incubation to counterstain cell nuclei. Fluorescence confocal microscopy was performed on a Nikon A1Rsi confocal microscope (Nikon Corporation, Tokyo, Japan) with 60X and 100X oil immersion objectives using excitation-emission settings at 405 nm-450/40 nm (Hoechst 34,580), 488 nm-530/20 nm (GFP), and 640–660/20 nm (Cy5).

[14] = biological target: activated VLA4 on CD138+CD38+ MM PCs (Homo sapiens, UniProt P05556+P13612); details: nineteen de-identified BM samples from myeloma patients (13/19); HBSS with Ca2+, Mg2+, 0.1% BSA
Procedure: as §4, with “The single cells were suspended in phosphate-buffered saline (PBS) with 0.1% bovine serum albumin as buffer.” left out

[15] = system: 5TGM1-GFP tumors in C57Bl/KaLwRij mice; assay: In vivo and ex vivo NIR fluorescence imaging in the 5TGM1/KaLwRij i.v. MM model; set-up: species or system mouse
Procedure: All animal studies were conducted according to protocols approved by the Washington University Animal Studies Committee. Mice were anesthetized for all treatments and imaging with 2% v/v isoflurane/100% O2. Female 1–3 month-old C57Bl/6 KaLwRij mice were injected intravenously (i.v.) with 10^6 5TGM1-GFP cells in 100 µL 1 × PBS via the lateral tail vein. Imaging studies were performed 3–4 weeks after tumor implantation. Prior to imaging, hair was removed by gentle clipping and depilatory cream to improve light transmission. Supplemental Fig. S1. […] The images were background subtracted and gated by fluorescence lifetime to minimize autofluorescence and diet-related non-specific fluorescence[65],[66].
Supplementary Fig. 4. Mice were anesthetized for all imaging with 2% v/v isoflurane/100% O2. Female (n = 2)1–3 month old C57Bl/6 KaLwRij mice were injected with 1 × 10^6 5TGM1-GFP WT in 100 µL PBS via the lateral tail-vein. In vivo 3D fluorescence imaging in Supplemental Fig. 3A was performed on IVIS Spectrum CT (PerkinElmer, Waltham, MA) with auto-exposure settings in the GFP wavelength (Ex./Em. 480 nm/520 nm) filter pair.
Supplementary Fig. 5. Mice were anesthetized for all imaging with 2% v/v isoflurane/100% O2. Female 1–3 month old C57Bl/6 KaLwRij mice were injected with 1 × 10^6 5TGM1-GFP WT (n = 11) or KO (n = 12) cells in 100 µL PBS via the lateral tail-vein.
2D analysis and 3D in vivo and ex vivo reconstructions were performed using the Living Image 4.7.1 analysis software. Background fluorescence was subtracted automatically via the “Adaptive Background Subtraction” module within the Living Image 4.7.1 program. Analysis of 2D ex vivo fluorescent images was performed by measuring Total Radiant Efficiency (TRE) (photons/sec/cm^2/sr)/(μW/cm^2) from ROIs drawn around bone and muscle tissue in the GFP and Cy5 images. Tissue to muscle ratio was calculated by dividing TREs of tissue by TREs of muscle tissue of each respective mouse.
as §3

[16] = ex vivo biodistribution 18 h after i.v. 100 µL of 25 µM LLP2A-Cy5, 5TGM1-GFP WT tumor mice, 3 weeks post inoculation, mean ± SD

activated VLA4 on the surface of the 5TGM1-GFP murine myeloma cells, sequence (Q00651 34-1039 limits assumed): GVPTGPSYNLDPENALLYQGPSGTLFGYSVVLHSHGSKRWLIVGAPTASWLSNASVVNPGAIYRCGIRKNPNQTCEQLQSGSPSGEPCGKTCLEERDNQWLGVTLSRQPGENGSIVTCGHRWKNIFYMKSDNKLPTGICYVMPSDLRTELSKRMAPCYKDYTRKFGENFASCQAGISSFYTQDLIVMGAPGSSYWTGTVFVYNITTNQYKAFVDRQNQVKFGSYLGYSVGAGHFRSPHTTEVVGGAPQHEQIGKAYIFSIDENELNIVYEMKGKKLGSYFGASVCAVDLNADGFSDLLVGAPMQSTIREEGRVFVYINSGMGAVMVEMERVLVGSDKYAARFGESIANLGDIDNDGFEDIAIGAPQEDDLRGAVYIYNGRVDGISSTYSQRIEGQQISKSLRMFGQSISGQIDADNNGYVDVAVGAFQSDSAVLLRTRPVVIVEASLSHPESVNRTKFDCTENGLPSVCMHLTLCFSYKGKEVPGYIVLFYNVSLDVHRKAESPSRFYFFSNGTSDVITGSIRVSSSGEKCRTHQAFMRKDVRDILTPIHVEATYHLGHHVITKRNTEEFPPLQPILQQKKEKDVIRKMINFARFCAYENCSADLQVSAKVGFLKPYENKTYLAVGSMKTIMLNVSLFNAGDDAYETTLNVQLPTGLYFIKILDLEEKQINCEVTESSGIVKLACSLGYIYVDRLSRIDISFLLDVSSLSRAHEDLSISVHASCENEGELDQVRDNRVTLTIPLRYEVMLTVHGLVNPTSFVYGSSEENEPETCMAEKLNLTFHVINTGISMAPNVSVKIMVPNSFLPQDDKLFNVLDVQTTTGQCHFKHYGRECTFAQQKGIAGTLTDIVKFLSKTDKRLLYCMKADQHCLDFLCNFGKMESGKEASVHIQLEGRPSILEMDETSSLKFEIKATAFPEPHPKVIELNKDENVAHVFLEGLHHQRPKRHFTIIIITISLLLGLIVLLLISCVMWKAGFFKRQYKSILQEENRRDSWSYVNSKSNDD
activated VLA4 on the surface of the 5TGM1-GFP murine myeloma cells, sequence (P09055 21-798): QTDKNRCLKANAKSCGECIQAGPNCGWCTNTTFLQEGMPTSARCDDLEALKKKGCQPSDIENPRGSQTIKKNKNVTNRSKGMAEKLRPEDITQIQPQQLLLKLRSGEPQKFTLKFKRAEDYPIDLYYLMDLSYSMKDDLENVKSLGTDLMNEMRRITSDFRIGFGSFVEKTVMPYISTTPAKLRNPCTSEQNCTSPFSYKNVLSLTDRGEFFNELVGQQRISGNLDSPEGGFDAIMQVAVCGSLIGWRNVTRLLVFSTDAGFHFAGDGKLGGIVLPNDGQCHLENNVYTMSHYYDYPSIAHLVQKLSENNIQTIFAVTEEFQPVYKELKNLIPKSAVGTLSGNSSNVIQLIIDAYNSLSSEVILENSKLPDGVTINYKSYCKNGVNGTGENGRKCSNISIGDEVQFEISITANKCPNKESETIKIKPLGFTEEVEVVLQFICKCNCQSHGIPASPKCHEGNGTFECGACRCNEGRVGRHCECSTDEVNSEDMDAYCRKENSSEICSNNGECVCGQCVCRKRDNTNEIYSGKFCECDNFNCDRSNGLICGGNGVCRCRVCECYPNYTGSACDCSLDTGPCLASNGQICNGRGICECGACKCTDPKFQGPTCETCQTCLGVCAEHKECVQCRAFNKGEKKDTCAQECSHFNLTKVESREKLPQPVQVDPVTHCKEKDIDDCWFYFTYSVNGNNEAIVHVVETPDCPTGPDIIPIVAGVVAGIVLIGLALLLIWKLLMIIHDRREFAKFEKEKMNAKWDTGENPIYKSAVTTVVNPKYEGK
T1 sequence (Q00651 34-1039 limits assumed): as the sequence (Q00651 34-1039 limits assumed) above
T1 sequence (P09055 21-798): as the sequence (P09055 21-798) above
activated VLA4 on RPMI-8226, sequence (P13612 34-1032): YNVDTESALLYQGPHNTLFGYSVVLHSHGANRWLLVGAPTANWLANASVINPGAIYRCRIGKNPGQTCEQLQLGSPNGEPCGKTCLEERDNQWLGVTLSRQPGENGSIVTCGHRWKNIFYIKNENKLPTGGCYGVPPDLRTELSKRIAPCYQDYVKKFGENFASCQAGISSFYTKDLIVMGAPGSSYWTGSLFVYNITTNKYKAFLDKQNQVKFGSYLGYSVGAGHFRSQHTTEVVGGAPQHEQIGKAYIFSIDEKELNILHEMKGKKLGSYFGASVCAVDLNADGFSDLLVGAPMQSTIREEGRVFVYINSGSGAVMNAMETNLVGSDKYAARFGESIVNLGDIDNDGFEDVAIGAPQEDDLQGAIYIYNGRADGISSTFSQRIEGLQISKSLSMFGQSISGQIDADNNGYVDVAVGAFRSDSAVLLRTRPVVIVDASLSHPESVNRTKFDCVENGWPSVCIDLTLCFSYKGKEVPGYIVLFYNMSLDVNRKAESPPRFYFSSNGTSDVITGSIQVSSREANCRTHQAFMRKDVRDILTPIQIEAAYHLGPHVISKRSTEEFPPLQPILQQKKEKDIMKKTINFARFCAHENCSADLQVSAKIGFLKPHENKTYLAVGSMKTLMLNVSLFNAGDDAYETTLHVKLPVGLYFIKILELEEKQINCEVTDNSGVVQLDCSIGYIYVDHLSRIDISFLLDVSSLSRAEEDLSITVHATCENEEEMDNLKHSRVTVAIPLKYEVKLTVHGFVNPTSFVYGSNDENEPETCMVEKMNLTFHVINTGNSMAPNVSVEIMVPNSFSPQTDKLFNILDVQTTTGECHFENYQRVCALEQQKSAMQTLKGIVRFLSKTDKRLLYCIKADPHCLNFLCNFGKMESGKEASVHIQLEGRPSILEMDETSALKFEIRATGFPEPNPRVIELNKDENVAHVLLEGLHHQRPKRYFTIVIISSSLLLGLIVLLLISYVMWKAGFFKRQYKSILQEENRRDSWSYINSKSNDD
activated VLA4 on RPMI-8226, sequence (P05556 21-798): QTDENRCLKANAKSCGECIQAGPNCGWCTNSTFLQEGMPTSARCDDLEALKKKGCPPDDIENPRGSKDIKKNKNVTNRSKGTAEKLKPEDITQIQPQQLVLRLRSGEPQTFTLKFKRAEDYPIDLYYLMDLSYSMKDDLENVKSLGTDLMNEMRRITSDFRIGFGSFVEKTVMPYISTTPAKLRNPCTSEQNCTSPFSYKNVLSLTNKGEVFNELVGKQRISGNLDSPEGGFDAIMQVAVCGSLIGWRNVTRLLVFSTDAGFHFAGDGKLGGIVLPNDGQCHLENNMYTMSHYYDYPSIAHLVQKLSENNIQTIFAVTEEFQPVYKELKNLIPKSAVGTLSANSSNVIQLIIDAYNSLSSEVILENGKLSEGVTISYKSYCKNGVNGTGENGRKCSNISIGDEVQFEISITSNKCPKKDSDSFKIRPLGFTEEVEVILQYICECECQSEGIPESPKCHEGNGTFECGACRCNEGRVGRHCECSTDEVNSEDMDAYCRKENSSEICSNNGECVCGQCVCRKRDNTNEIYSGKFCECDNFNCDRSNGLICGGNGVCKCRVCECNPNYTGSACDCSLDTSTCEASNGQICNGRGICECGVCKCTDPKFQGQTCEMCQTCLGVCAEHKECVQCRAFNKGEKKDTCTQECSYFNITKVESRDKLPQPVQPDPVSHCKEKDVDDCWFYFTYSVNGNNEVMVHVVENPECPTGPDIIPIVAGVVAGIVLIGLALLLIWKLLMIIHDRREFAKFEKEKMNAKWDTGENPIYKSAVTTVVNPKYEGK
activated VLA4 on MM1.S, sequence (P13612 34-1032): as the sequence (P13612 34-1032) above
activated VLA4 on MM1.S, sequence (P05556 21-798): as the sequence (P05556 21-798) above
activated VLA4 on U266, sequence (P13612 34-1032): as the sequence (P13612 34-1032) above
activated VLA4 on U266, sequence (P05556 21-798): as the sequence (P05556 21-798) above
activated VLA4 on H929, sequence (P13612 34-1032): as the sequence (P13612 34-1032) above
activated VLA4 on H929, sequence (P05556 21-798): as the sequence (P05556 21-798) above
activated VLA4 on OPM2, sequence (P13612 34-1032): as the sequence (P13612 34-1032) above
activated VLA4 on OPM2, sequence (P05556 21-798): as the sequence (P05556 21-798) above
activated VLA4 on 5TGM1, sequence (Q00651 34-1039 limits assumed): as the sequence (Q00651 34-1039 limits assumed) above
activated VLA4 on 5TGM1, sequence (P09055 21-798): as the sequence (P09055 21-798) above
activated VLA4 on CD138+CD38+ MM PCs, sequence (P13612 34-1032): as the sequence (P13612 34-1032) above
activated VLA4 on CD138+CD38+ MM PCs, sequence (P05556 21-798): as the sequence (P05556 21-798) above

## Cc1ccccc1NC(=O)Nc1ccc(CC(=O)N[C@@H](CCCCNC(=O)/C=C/c2cccnc2)C(=O)N[C@@H](CCCC(=O)O)C(=O)NC2(C(N)=O)CCCCC2)cc1 [LLP2A-Cy5]
[1]
  percentage of LLP2A-Cy5+ cells: 58.2%
  relative median fluorescence (RMFI): 3.0
[2]
  percentage of LLP2A-Cy5+ cells: 36.3%
  relative median fluorescence (RMFI): 2.2
[3]
  percentage of LLP2A-Cy5+ cells: 23.3%
  relative median fluorescence (RMFI): 1.7
[4]; ex vivo BM, GFP+ tumor cells (97.5% VLA4+)
  % LLP2A-Cy5+ cells in the BM: 84.7%
[4]; hematopoietic BM niche (63.6% VLA4+)
  % LLP2A-Cy5+ cells in the hematopoietic BM niche: 53.2%
[5]
  % LLP2A-Cy5+: 80.1%
  LLP2A-Cy5+ median fluorescence intensity (MFI): 4.6
[6]
  % LLP2A-Cy5+: 100%
  LLP2A-Cy5+ median fluorescence intensity (MFI): 23.4
[7]
  % LLP2A-Cy5+: 59.5%
  LLP2A-Cy5+ median fluorescence intensity (MFI): 3.2
[8]
  % LLP2A-Cy5+: 22.4%
  LLP2A-Cy5+ median fluorescence intensity (MFI): 2.1
[9]
  % LLP2A-Cy5+: 100%
  LLP2A-Cy5+ median fluorescence intensity (MFI): 16.1
[10]
  % LLP2A-Cy5+: 63.3%
  LLP2A-Cy5+ median fluorescence intensity (MFI): 3.4
[11]
  binding to WT cells (flow cytometry gate): 100%
  binding to WT cells after pre-incubation with BIO5192: 0.95%
[12]
  binding to KO cells (flow cytometry gate): 0.6%
  binding to KO cells after pre-incubation with BIO5192: 0.52%
[13]; 1 µM, 37 °C, 2.5 h, confocal 3D z-stack
  cellular localization after extended incubation: dominant cell membrane binding; also recorded: strong cell surface binding with minimal internalization
[13]; LLP2A-Cy5 1 µM co-incubated with 100-fold excess LLP2A-PEG4 (100 µM), 15 min, 4 °C, confocal microscopy
  fold reduction of cell surface binding on blocking with excess unlabeled peptide: 3.07 ± 0.3 fold
[14]
  share of patient samples in which LLP2A-Cy5 stained over 20% of CD138+CD38+ MM PCs: 68%
[15]; KaLwRij mice with Itga4 KO versus WT 5TGM1-GFP tumors, ex vivo fluorescence imaging 18 h after LLP2A-Cy5
  uptake in KO tumor foci compared with WT: significantly reduced uptake
[15]; [16]
  femur-muscle fluorescence ratio: 7.0 ± 2.5
  spleen-muscle fluorescence ratio: 2.6 ± 0.7
[15]; noninvasive fluorescence imaging before, 4 and 18 h after i.v. 100 µL of 25 µM LLP2A-Cy5
  time post-injection at which tumor contrast peaked: ~ 18 h

B1: sVCAM-1: soluble vascular cell adhesion molecule-1, natural ligand of VLA4 (protein, UniProt P19320 25-698, looked up)
extracellular domain: FKIETTPESRYLAQIGDSVSLTCSTTGCESPFFSWRTQIDSPLNGKVTNEGTTSTLTMNPVSFGNEHSYLCTATCESRKLEKGIQVEIYSFPKDPEIHLSGPLEAGKPITVKCSVADVYPFDRLEIDLLKGDHLMKSQEFLEDADRKSLETKSLEVTFTPVIEDIGKVLVCRAKLHIDEMDSVPTVRQAVKELQVYISPKNTVISVNPSTKLQEGGSVTMTCSSEGLPAPEIFWSKKLDNGNLQHLSGNATLTLIAMRMEDSGIYVCEGVNLIGKNRKEVELIVQEKPFTVEISPGPRIAAQIGDSVMLTCSVMGCESPSFSWRTQIDSPLSGKVRSEGTNSTLTLSPVSFENEHSYLCTVTCGHKKLEKGIQVELYSFPRDPEIEMSGGLVNGSSVTVSCKVPSVYPLDRLEIELLKGETILENIEFLEDTDMKSLENKSLEMTFIPTIEDTGKALVCQAKLHIDDMEFEPKQRQSTQTLYVNVAPRDTTVLVSPSSILEEGSSVNMTCLSQGFPAPKILWSRQLPNGELQPLSENATLTLISTKMEDSGVYLCEGINQAGRSRKEVELIIQVTPKDIKLTAFPSESVKEGDTVIISCTCGNVPETWIILKKKAETGDTVLKSIDGAYTIRKAQLKDAGVYECESKNKVGSQLRSLTLDVQGRENNKDYFSPE
modifications: extracellular domain
notes: soluble vascular cell adhesion molecule-1, natural ligand of VLA4
[11]
  binding to WT cells (flow cytometry gate): 97.7%
  binding to WT cells after pre-incubation with BIO5192: 3.33%
[12]
  binding to KO cells (flow cytometry gate): 1.65 ± 0.07%
  binding to KO cells after pre-incubation with BIO5192: 2.51%
